Experiments:
[1] = test system: morningglory; assay: Test C pre-/postemergence test; format: in vivo, Ipomoea coccinea; conditions: for Plant response rating, Morningglory: scale 0 to 100, 0 no effect, 100 complete control
Method in brief: (§1)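 Seeds were planted and treated preemergence with test chemical in a non-phytotoxic solvent mixture containing surfactant. Postemergence applications of the same formulation went onto plants 2 to 18 cm tall (1- to 4-leaf stage). A dash marks no test result.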

[2] = test system: soybean; assay: Test C pre-/postemergence test; format: in vivo, Glycine max; conditions: for Plant response rating, Soybean: scale 0 to 100, 0 no effect, 100 complete control
Method in brief: as §1

[3] = test system: yellow nutsedge; assay: Test C pre-/postemergence test; format: in vivo, Cyperus esculentus; conditions: for Plant response rating, Nutsedge, Yellow: scale 0 to 100, 0 no effect, 100 complete control
Method in brief: as §1

[4] = test system: corn; assay: Test C pre-/postemergence test; format: in vivo, Zea mays; conditions: for Plant response rating, Corn: scale 0 to 100, 0 no effect, 100 complete control
Method in brief: as §1

[5] = test system: morningglory; assay: Test A pre-/postemergence greenhouse test; format: in vivo, Ipomoea spp.; conditions: for Morningglory plant response rating: 0 to 100 scale
Method in brief: (§2)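 Two application timings were run side by side in the greenhouse. Before emergence, compound went onto the soil surface of loam–sand pots as a directed spray; after emergence, plants at 2–10 cm and the one- to two-leaf stage were treated. Visual injury versus controls was rated at approximately day ten.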

[6] = test system: Goosegrass; assay: Test C pre-/postemergence test; format: in vivo, Eleusin indica; conditions: for Plant response rating, Goosegrass: scale 0 to 100, 0 no effect, 100 complete control
Method in brief: as §1

[7] = test system: crabgrass; assay: Test A pre-/postemergence greenhouse test; format: in vivo, Digitaria sanguinalis; conditions: for Crabgrass, Large plant response rating: 0 to 100 scale
Method in brief: as §2

[8] = test system: cocklebur; assay: Test C pre-/postemergence test; format: in vivo, Xanthium strumarium; conditions: for Plant response rating, Cocklebur: scale 0 to 100, 0 no effect, 100 complete control
Method in brief: as §1

[9] = test system: downy brome; assay: Test C pre-/postemergence test; format: in vivo, Bromus tectorum; conditions: for Plant response rating, Bromegrass, Downy: scale 0 to 100, 0 no effect, 100 complete control
Method in brief: as §1

[10] = test system: giant foxtail; assay: Test A pre-/postemergence greenhouse test; format: in vivo, Setaria faberi; conditions: for Foxtail, Giant plant response rating: 0 to 100 scale
Method in brief: as §2

[11] = test system: woolly cupgrass; assay: Test C pre-/postemergence test; format: in vivo, Eriochloa villosa; conditions: for Plant response rating, Cupgrass, Woolly: scale 0 to 100, 0 no effect, 100 complete control
Method in brief: as §1

[12] = test system: lambsquarters; assay: Test C pre-/postemergence test; format: in vivo, Chenopodium album; conditions: for Plant response rating, Lambsquarters: scale 0 to 100, 0 no effect, 100 complete control
Method in brief: as §1

[13] = test system: common ragweed; assay: Test C pre-/postemergence test; format: in vivo, Ambrosia elation; conditions: for Plant response rating, Ragweed: scale 0 to 100, 0 no effect, 100 complete control
Method in brief: as §1

[14] = test system: wheat; assay: Test A pre-/postemergence greenhouse test; format: in vivo, Triticum aestivum; conditions: for Wheat plant response rating: 0 to 100 scale
Method in brief: as §2

[15] = test system: johnsongrass; assay: Test C pre-/postemergence test; format: in vivo, Sorghum halepense; conditions: for Plant response rating, Johnsongrass: scale 0 to 100, 0 no effect, 100 complete control
Method in brief: as §1

[16] = test system: giant foxtail; assay: Test C pre-/postemergence test; format: in vivo, Setaria faberii; conditions: for Plant response rating, Foxtail, Giant: scale 0 to 100, 0 no effect, 100 complete control
Method in brief: as §1

[17] = 31 g ai/ha, Preemergence, scale 0 to 100
[18] = 62 g ai/ha, preemergence, scale 0 (no effect) to 100 (complete control)
[19] = preemergence, 125 g ai/ha, scale 0 (no effect) to 100 (complete control)
[20] = Postemergence, 125 g ai/ha, 0 is no effect, 100 is complete control
[21] = Postemergence, 500 g ai/ha, 0 is no effect, 100 is complete control
[22] = Preemergence, 125 g ai/ha, 0 no effect, 100 complete control
[23] = Preemergence, 500 g ai/ha, 0 to 100 scale where 0 is no effect and 100 is complete control

CC(c1c(C(F)(F)F)nn(C)c1OC(F)F)S(=O)(=O)c1cccc[n+]1[O-] (centres unmarked) [Compound 5]
Morningglory plant response rating [1, 17]: 85 | Morningglory plant response rating [1, 18]: 100 | Plant response rating (0 to 100), Morningglory ([1]; Postemergence, 31 g ai/ha): 5 | Plant response rating, Morningglory ([1]; Postemergence, 62 g ai/ha): 5 | Plant response rating, Morningglory ([1]; Postemergence, 125 g ai/ha): 10 | Plant response rating, Morningglory ([1]; Postemergence, 250 g ai/ha): 10 | Plant response rating (0 to 100), Morningglory ([1]; Preemergence, 250 g ai/ha): 100 | Morningglory plant response rating [1, 19]: 100 | Soybean plant response rating [2, 17]: 0 | Plant response rating (0 to 100), Soybean ([2]; Postemergence, 31 g ai/ha): 0 | Plant response rating (0 to 100), Soybean ([2]; Postemergence, 62 g ai/ha): 20 | Plant response rating, Soybean ([2]; Postemergence, 125 g ai/ha): 35 | Plant response rating, Soybean ([2]; Postemergence, 250 g ai/ha): 70 | Plant response rating (0 to 100), Soybean ([2]; Preemergence, 250 g ai/ha): 0 | Nutsedge, Yellow plant response rating [3, 17]: 80 | Nutsedge, Yellow plant response rating [3, 18]: 95 | Plant response rating (0 to 100), Nutsedge, Yellow ([3]; Postemergence, 31 g ai/ha): 0 | Plant response rating, Nutsedge, Yellow ([3]; Postemergence, 62 g ai/ha): 0 | Plant response rating, Nutsedge, Yellow ([3]; Postemergence, 125 g ai/ha): 0 | Plant response rating, Nutsedge, Yellow ([3]; Postemergence, 250 g ai/ha): 10 | Plant response rating (0 to 100), Nutsedge, Yellow ([3]; Preemergence, 250 g ai/ha): 100 | Nutsedge, Yellow plant response rating [3, 19]: 100 | Corn plant response rating [4, 17]: 0 | Corn plant response rating [4, 18]: 40 | Plant response rating (0 to 100), Corn ([4]; Postemergence, 31 g ai/ha): 0 | Plant response rating, Corn ([4]; Postemergence, 62 g ai/ha): 0 | Plant response rating, Corn ([4]; Postemergence, 125 g ai/ha): 0 | Plant response rating, Corn ([4]; Postemergence, 250 g ai/ha): 0 | Plant response rating (0 to 100), Corn ([4]; Preemergence, 250 g ai/ha): 95 | Corn plant response rating [4, 19]: 55 | Morningglory plant response rating [5, 20]: 60 | Morningglory plant response rating [5, 21]: 90 | Morningglory plant response rating [5, 22]: 90 | Plant response rating, Morningglory [5, 23]: 100 | Goosegrass plant response rating [6, 17]: 100 | Goosegrass plant response rating [6, 18]: 100 | Plant response rating (0 to 100), Goosegrass ([6]; Postemergence, 31 g ai/ha): 0 | Plant response rating, Goosegrass ([6]; Postemergence, 62 g ai/ha): 55 | Plant response rating, Goosegrass ([6]; Postemergence, 125 g ai/ha): 60 | Plant response rating, Goosegrass ([6]; Postemergence, 250 g ai/ha): 70 | Plant response rating (0 to 100), Goosegrass ([6]; Preemergence, 250 g ai/ha): 100 | Goosegrass plant response rating [6, 19]: 100 | Crabgrass, Large plant response rating [7, 20]: 80 | Crabgrass, Large plant response rating [7, 21]: 90 | Crabgrass, Large plant response rating [7, 22]: 80 | Plant response rating, Crabgrass, Large [7, 23]: 100 | Cocklebur plant response rating [8, 17]: 0 | Cocklebur plant response rating [8, 18]: 0 | Plant response rating (0 to 100), Cocklebur ([8]; Postemergence, 31 g ai/ha): 0 | Plant response rating, Cocklebur ([8]; Postemergence, 62 g ai/ha): 0 | Plant response rating, Cocklebur ([8]; Postemergence, 125 g ai/ha): 0 | Plant response rating, Cocklebur ([8]; Postemergence, 250 g ai/ha): 10 | Plant response rating (0 to 100), Cocklebur ([8]; Preemergence, 250 g ai/ha): 0 | Cocklebur plant response rating [8, 19]: 0 | Bromegrass, Downy plant response rating [9, 17]: 0 | Bromegrass, Downy plant response rating [9, 18]: 20 | Plant response rating (0 to 100), Bromegrass, Downy ([9]; Postemergence, 31 g ai/ha): 0 | Plant response rating, Bromegrass, Downy ([9]; Postemergence, 62 g ai/ha): 0 | Plant response rating, Bromegrass, Downy ([9]; Postemergence, 125 g ai/ha): 0 | Plant response rating, Bromegrass, Downy ([9]; Postemergence, 250 g ai/ha): 0 | Plant response rating (0 to 100), Bromegrass, Downy ([9]; Preemergence, 250 g ai/ha): 60 | Bromegrass, Downy plant response rating [9, 19]: 25 | Foxtail, Giant plant response rating [10, 20]: 90 | Foxtail, Giant plant response rating [10, 21]: 90 | Foxtail, Giant plant response rating [10, 22]: 90 | Plant response rating, Foxtail, Giant [10, 23]: 100 | Cupgrass, Woolly plant response rating [11, 17]: 85 | Cupgrass, Woolly plant response rating [11, 18]: 90 | Plant response rating (0 to 100), Cupgrass, Woolly ([11]; Postemergence, 31 g ai/ha): 0 | Plant response rating, Cupgrass, Woolly ([11]; Postemergence, 62 g ai/ha): 40 | Plant response rating, Cupgrass, Woolly ([11]; Postemergence, 125 g ai/ha): 40 | Plant response rating, Cupgrass, Woolly ([11]; Postemergence, 250 g ai/ha): 50 | Plant response rating (0 to 100), Cupgrass, Woolly ([11]; Preemergence, 250 g ai/ha): 100 | Cupgrass, Woolly plant response rating [11, 19]: 100 | Lambsquarters plant response rating [12, 17]: 100 | Lambsquarters plant response rating [12, 18]: 100 | Plant response rating (0 to 100), Lambsquarters ([12]; Postemergence, 31 g ai/ha): 0 | Plant response rating, Lambsquarters ([12]; Postemergence, 62 g ai/ha): 0 | Plant response rating, Lambsquarters ([12]; Postemergence, 125 g ai/ha): 0 | Plant response rating, Lambsquarters ([12]; Postemergence, 250 g ai/ha): 0 | Plant response rating (0 to 100), Lambsquarters ([12]; Preemergence, 250 g ai/ha): 100 | Lambsquarters plant response rating [12, 19]: 100 | Ragweed plant response rating [13, 17]: 85 | Ragweed plant response rating [13, 18]: 85 | Plant response rating (0 to 100), Ragweed ([13]; Postemergence, 31 g ai/ha): 0 | Plant response rating (0 to 100), Ragweed ([13]; Postemergence, 62 g ai/ha): 5 | Plant response rating, Ragweed ([13]; Postemergence, 125 g ai/ha): 5 | Plant response rating, Ragweed ([13]; Postemergence, 250 g ai/ha): 55 | Plant response rating (0 to 100), Ragweed ([13]; Preemergence, 250 g ai/ha): 100 | Ragweed plant response rating [13, 19]: 100 | Wheat plant response rating [14, 20]: 60 | Wheat plant response rating [14, 21]: 70 | Wheat plant response rating [14, 22]: 70 | Plant response rating, Wheat [14, 23]: 90 | Johnsongrass plant response rating [15, 17]: 100 | Johnsongrass plant response rating [15, 18]: 100 | Plant response rating (0 to 100), Johnsongrass ([15]; Postemergence, 31 g ai/ha): 0 | Plant response rating, Johnsongrass ([15]; Postemergence, 62 g ai/ha): 0 | Plant response rating, Johnsongrass ([15]; Postemergence, 125 g ai/ha): 0 | Plant response rating, Johnsongrass ([15]; Postemergence, 250 g ai/ha): 10 | Plant response rating (0 to 100), Johnsongrass ([15]; Preemergence, 250 g ai/ha): 100 | Johnsongrass plant response rating [15, 19]: 100 | Foxtail, Giant plant response rating [16, 17]: 95 | Foxtail, Giant plant response rating [16, 18]: 95 | Plant response rating (0 to 100), Foxtail, Giant ([16]; Postemergence, 31 g ai/ha): 0 | Plant response rating, Foxtail, Giant ([16]; Postemergence, 62 g ai/ha): 5 | Plant response rating, Foxtail, Giant ([16]; Postemergence, 125 g ai/ha): 40 | Plant response rating, Foxtail, Giant ([16]; Postemergence, 250 g ai/ha): 70 | Plant response rating (0 to 100), Foxtail, Giant ([16]; Preemergence, 250 g ai/ha): 100 | Foxtail, Giant plant response rating [16, 19]: 98
